Data as given in ChEMBL document CHEMBL1135979, “Novel sigma receptor ligands. Part 2. SAR of spiro[[2]benzopyran-1,4'-piperidines] and spiro[[2]benzofuran-1,4'-piperidines] with carbon substituents in position 3” (J Med Chem, 2002).

What was measured:
[1] = organism: Rattus norvegicus; experiment: Ratio of binding affinity towards Sigma opioid receptor type 1 versus Sigma opioid receptor type 2
[2] = biological target: Sigma non-opioid intracellular receptor 1 (Cavia porcellus); experiment: Ability to displace [3H](+)-pentazocine from Sigma opioid receptor type 1 of guinea pig brain
[3] = biological target: Sigma-2 receptor (Rattus norvegicus); experiment: Ability to displace [3H]ditolylguanidine in the presence of 100 nM (+)-pentazocine from Sigma opioid receptor type 2 of rat liver

| SMILES | Selectivity [1] | Ki [2] | Ki [3] |
| --- | --- | --- | --- |
| N#CCC1Cc2ccccc2C2(CCN(Cc3ccccc3)CC2)O1 (stereo not drawn) | 295 |  |  |
| OCCC1Cc2ccccc2C2(CCN(Cc3ccccc3)CC2)O1 (stereo not drawn) | 668 |  |  |
| CNCCC1Cc2ccccc2C2(CCN(Cc3ccccc3)CC2)O1 (stereo not drawn) | 29 |  |  |
| OCC1Cc2ccccc2C2(CCN(Cc3ccccc3)CC2)O1 (stereo not drawn) | 292 |  |  |
| O=CCC1Cc2ccccc2C2(CCN(Cc3ccccc3)CC2)O1 (stereo not drawn) | 180 |  |  |

Further lines, results first:

| Selectivity [1] | Ki [2] | Ki [3] | SMILES |
| --- | --- | --- | --- |
| 768 |  |  | N#CCC1OC2(CCN(Cc3ccccc3)CC2)c2ccccc21 (stereo not drawn) |
| 236 | 2.17 nM | 513 nM | OC1Cc2ccccc2C2(CCN(Cc3ccccc3)CC2)O1 (stereo not drawn) |
| 796 |  |  | CCOC(=O)C1OC2(CCN(Cc3ccccc3)CC2)c2ccccc21 (stereo not drawn) |
| 124 |  |  | CCOC(=O)CC1Cc2ccccc2C2(CCN(Cc3ccccc3)CC2)O1 (stereo not drawn) |
| 1130 |  |  | CCOC(=O)C1Cc2ccccc2C2(CCN(Cc3ccccc3)CC2)O1 (stereo not drawn) |
| 449 |  |  | CCOC(=O)CC1OC2(CCN(Cc3ccccc3)CC2)c2ccccc21 (stereo not drawn) |
